In US20240101584A1, “TARGETED DELIVERY OF 1,2,4,5 TETRAOXANE COMPOUNDS AND THEIR USES” (Westlake University, priority 2021, published 2024):
Where two headings read alike, the source gives them in different places.

Tests used:
HepG2 cells = test: MTT viability assay, HepG2 cells; assay type: cell-based, human
Procedure: (§1) The anticancer activities of the exemplary compounds listed in Example 1 were tested against human cervix Hela cells, mammary breast cancer MDA-MB-231 cells, human hepatocellular HepG2 cells, human colorectal HCT116 cells, mammary ductal T47D cells, non-cancerous NIH3T3 cells, dog's kidney MDCK cells, and mouse brain bEnd.3 cells, respectively.

HEK293 cells = test: MTT viability assay, HEK293 cells; assay type: cell-based; conditions: Homo sapiens, HEK293, 48 h incubation, mean, n = 3, read-out: IC50 against HEK293 cells
PLC = test: Viability IC50, PLC cells; assay type: cell-based; conditions: Table 12a
HEYA8 CSCs = test: Protective effect of Q-VD-OPh, DFX and Fer-1 on HEYA8 CSCs; assay type: cell-based; conditions: for cell death pathway: HEYA8 cancer cells and CSCs
Procedure: FIGS. 5A-5B are bar graphs showing the protective effect of Q-VD-OPh, deferasirox (DFX) and ferrostatin-1 (Fer-1) on HeyA8 cancer stem cells (FIG. 5A) and HeyA8 spheres (FIG. 5B) after treatment with compound 48 and compound 37b, respectively, for 24 h. *P≤0.05, **P≤0.01 versus non-pretreated group. Data are plotted as the mean±SD, n=3 biologically independent samples. N.S., no statistically significant change. All P values were determined using two-tailed Student's t-test.

Huh7 = test: Viability IC50, Huh7 cells; assay type: cell-based; conditions: Homo sapiens, Huh-7; Table 12a
MDA-MB-231 cells = test: MTT viability assay, MDA-MB-231 cells; assay type: cell-based; conditions: for IC50: Homo sapiens; for fold more potent than FINO2 in eradicating MDA-MB-231 cells: comparator FINO2; for fold more cytotoxic than OZ439 on MDA-MB-231: comparator OZ439 (literature)
Procedure: as §1

T47D cells = test: MTT viability assay, T47D cells; assay type: cell-based; conditions: for IC50: Homo sapiens, T47D
Procedure: as §1

bEnd.3 cells = test: MTT viability assay, bEnd.3 cells; assay type: cell-based, mouse; conditions: Mus musculus, BEND3, 48 h incubation, mean, n = 3, read-out: IC50 against bEnd.3 cells
Procedure: as §1

[1] = tested on: MDA-MB-231 xenograft tumors; test: Mouse xenograft breast tumors (MDA-MB-231); assay type: in vivo, Nude mice; conditions: for histopathological observations of liver, heart, kidney, spleen and lungs: H&E staining, compared to the controls
Procedure: FIG. 12A is a graph showing the tumor volume of xenograft tumors versus time after s.c. injection of DMSO, PTX, compound 37b, or compound 48. Nude mice were injected s.c. with MDA-MB-231 cells (10^6) and randomly allocated to one of the six treatment groups (n=5): (i) DMSO, (ii) Paclitaxel (PTX), 5 mg/kg, (iii) compound 37b, 5 mg/kg, (iv) compound 37b, 10 mg/kg, (v) compound 48, 5 mg/kg, or (vi) compound 48, 10 mg/kg. When control animals (DMSO) began to appear tumor ulceration (25 days), all animals in the experiment were sacrificed and photographed.
FIG. 12B are photographs of the tumor from sacrificed animals of different treatment groups after 25 days. FIG. 12C is a graph showing the tumor weight of xenograft tumors versus time after s.c. injection of DMSO, PTX, compound 37b, or compound 48. Data are shown as mean±SEM. * P≤0.05 versus DMSO group. FIG. 12D are photographs showing the morphological observation of mice tissue treated with DMSO, paclitaxel, compound 37b, or compound 48 with H&E staining on heart, liver, kidney, lungs, and spleen tissues (200×).

NIH3T3 cells = test: MTT viability assay, non-cancerous NIH3T3 cells; assay type: cell-based; conditions: Mus musculus, NIH3T3
Procedure: as §1

HCT116 cells = test: MTT viability assay, HCT116 cells; assay type: cell-based, human; conditions: for IC50: Homo sapiens, HCT-116; for fold more cytotoxic to HCT116 cells than OZ277: comparator OZ277; for fold more cytotoxic than OZ439 on HCT116: comparator OZ439 (literature)
Procedure: as §1

HeyA8 cells = test: CellTiter-Glo viability, adherent HeyA8 ovarian cancer cells; assay type: cell-based; conditions: HEY A8; adherent cancer cells; CellTiter-Glo, 48 hrs, n = 3
MCF7 = test: Viability IC50, MCF7 cells; assay type: cell-based; conditions: Homo sapiens, Table 12a
HEY A8 cells = test: Protective effect of DFO and Fer-1 on adherent HEY A8 cells; assay type: cell-based; conditions: 24 h treatment
Procedure: FIG. 4 is a bar graph showing the protective effect of DFO and Fer-1 on HeyA8 cancer cells after treatment with compound 48 for 24 h. *P≤0.01, ***P≤0.001 versus non-pretreated group. Data represent mean±SD, n=3 biologically independent samples. All P values were determined using two-tailed Student's t-test.

Jurkat cells = test: MTT viability assay, Jurkat cells; assay type: cell-based; conditions: Homo sapiens, 48 h incubation, mean, n = 3, read-out: IC50 against Jurkat cells
HL-60 cells = test: MTT viability assay, HL-60 cells; assay type: cell-based; conditions: for IC50: Homo sapiens, HL-60
[2] = MDA-MB-231, Table 12b, read-out: IC50 MDA-MB-231
[3] = MTT, 48 h incubation, mean, n = 3, read-out: IC50 against T47D cells
[4] = MTT, 48 h incubation, mean, n = 3, read-out: IC50 against NIH3T3 cells
[5] = Table 12b, read-out: IC50 NIH3T3
[6] = MTT, 48 h incubation, mean, n = 3, read-out: IC50 against HCT116 cells
[7] = Table 12b, read-out: IC50 HCT116

SMILES	IC50 (PLC) [µM]	cell death pathway (HEYA8 CSCs)	IC50 (Huh7) [µM]	IC50 (MDA-MB-231 cells; [2]) [nM]	fold more potent than FINO2 in eradicating MDA-MB-231 cells (MDA-MB-231 cells)	fold more cytotoxic than OZ439 on MDA-MB-231 (MDA-MB-231 cells) [fold]	IC50 (T47D cells; [3]) [nM]	IC50 (T47D cells; Table 12b, read-out: IC50 T47D) [nM]	selectivity index (IC50 of NIH3T3 divided by IC50 on T47D) (T47D cells; Table 12b, value in bracket)	histopathological observations of liver, heart, kidney, spleen and lungs [1]	IC50 (NIH3T3 cells; [4]) [µM]	IC50 (NIH3T3 cells; [5]) [µM]	IC50 (HCT116 cells; [6]) [nM]	IC50 (HCT116 cells; [7]) [nM]	fold more cytotoxic to HCT116 cells than OZ277 (HCT116 cells) [fold]	fold more cytotoxic than OZ439 on HCT116 (HCT116 cells) [fold]	IC50 (HeyA8 cells) [nM]	IC50 (MCF7) [µM]	other results
CC(C)(C)C1CCC2(CC1)OOC1(CCC(OC(=O)NCCC[P+](c3ccccc3)(c3ccccc3)c3ccccc3)CC1)OO2.[Br-] (stereo not shown) [Compound 37b, (3-((((12-(tert-butyl)-7,8,15,16-tetraoxadispiro[5.2.59.26]hexadecan-3-yl)oxy)carbonyl)amino)propyl)triphenylphosphonium bromide]	2.7 ± 0.02	induced ferroptosis instead of apoptosis	3.8 ± 0.9	400 ± 50	≥ 25 fold	64	620	600 ± 100	(>7.6)	no histological alterations	4.6	4.6 ± 1.9	600 ± 300	600 ± 300	113	106	1400 ± 70	2.4 ± 1.7	IC50 (HepG2 cells; Homo sapiens, HepG2, MTT, 48 h incubation, mean, n = 3, read-out: IC50 against HepG2 cells): 700 nM; fold more cytotoxic than RKA182 for HepG2 cells (HepG2 cells; comparator RKA182): 36 fold; IC50 (HEK293 cells): 1600 nM; selectivity index (IC50 of NIH3T3 divided by IC50 on MDA-MB-231) (MDA-MB-231 cells; Table 12b, value in bracket): (>11.5); fold more cytotoxic to MDA-MB-231 cells than OZ277 (MDA-MB-231 cells; comparator OZ277): 87 fold; IC50 (bEnd.3 cells): 5.2 µM; tumor growth compared with vehicle control ([1]; 10 mg/kg, MDA-MB-231 xenograft, 25 days): effective in inhibiting tumor growth; selectivity index (IC50 of NIH3T3 divided by IC50 on HCT116) (HCT116 cells; Table 12b, value in bracket): (>7.6)
CC(C)(C)C1CCC2(CC1)OOC1(CCC(OC(=O)NCCC[N+](C)(Cc3ccccc3)Cc3ccccc3)CC1)OO2.[I-] (stereo not shown) [Compound 48, N,N-dibenzyl-3-((((12-(tert-butyl)-7,8,15,16-tetraoxadispiro[5.2.59.26]hexadecan-3-yl)oxy)carbonyl)amino)-N-methylpropan-1-aminium iodide]	3.9 ± 0.6	ferroptosis	5.2 ± 0.4	2400 ± 700	at least 4 fold	10	1700	1700 ± 300	(>17)	no histological alterations	29 ± 5.7	29 ± 5.7	2200 ± 300	2200 ± 300	44	29	2300 ± 700	8.7 ± 4.1	effect of DFO or Fer-1 pretreatment on induced cell death, adherent HEY A8 cells (HEY A8 cells): reversed the cell death; effect of Fer-1 co-treatment on HEYA8 CSCs (HEYA8 CSCs; 24 h treatment): majority of the CSCs remained unaffected; effect of deferasirox (DFX) on cell death in HEYA8 CSCs (HEYA8 CSCs; 24 h treatment): rescue part of the cell death; IC50 (Jurkat cells): 1000 nM; IC50 (MDA-MB-231 cells; MDA-MB-231, 48 h, MTT, 48 h incubation, mean, n = 3, read-out: IC50 against MDA-MB-231 cells): < 4000 nM; IC50 (MDA-MB-231 cells; MDA-MB-231, 48 h, Table 13, experimental data, MTT, 48 hrs, n = 3, read-out: IC50 MDA-MB-231): 2400 ± 700 nM; selectivity index (IC50 of NIH3T3 divided by IC50 on MDA-MB-231) (MDA-MB-231 cells; Table 13, value in bracket): (>12); IC50 (T47D cells; Table 13, experimental data, MTT, 48 hrs, n = 3, read-out: IC50 T47D): 1700 ± 300 nM; selectivity index (IC50 of NIH3T3 divided by IC50 on T47D) (T47D cells; Table 13, value in bracket): (>17); tumor size ([1]; 5 mg/kg and 10 mg/kg, MDA-MB-231 xenograft, 25 days): reduced the tumor size; abnormal behavior or weight loss during treatment period ([1]; MDA-MB-231 xenograft mice, entire treatment period): no abnormal behavior or weight loss; IC50 (NIH3T3 cells; Table 13, experimental data, MTT, 48 hrs, n = 3, read-out: IC50 NIH3T3): 29 ± 5.7 µM; IC50 (HCT116 cells; Table 13, experimental data, MTT, 48 hrs, n = 3, read-out: IC50 HCT116): 2200 ± 300 nM; selectivity index (IC50 of NIH3T3 divided by IC50 on HCT116) (HCT116 cells; Table 13, value in bracket): (>13); IC50 (HL-60 cells; MTT, 48 h incubation, mean, n = 3, read-out: IC50 against HL-60 cells): 1200 ± 900 nM; IC50 (HL-60 cells; Table 12b, read-out: IC50 HL-60): 1200 ± 900 nM; IC50 (HL-60 cells; Table 13, experimental data, MTT, 48 hrs, n = 3, read-out: IC50 HL-60): 1200 ± 900 nM; selectivity index (IC50 of NIH3T3 divided by IC50 on HL-60) (HL-60 cells; Table 13, value in bracket): (>24); fold more cytotoxic to HL-60 cells than OZ439 (HL-60 cells; comparator OZ439): at least 9 fold; fold more potent than RKA182 in HL-60 cells (HL-60 cells; comparator RKA182): 9 fold
